Data reported in patent US20090105072A1, “2-(Pyridin-2-Yl)-Pyrimidines for Use as Fungicides” (priority 2007, published 2009).

Test system: Puccinia recondita
Test: Curative activity against brown rust of wheat caused by Puccinia recondita
Format: in vivo
Conditions: 250 ppm, wheat seedlings cultivar Kanzler, 7 days after treatment, untreated plants 90% infected
Protocol: The active compounds were prepared separately or together as a stock solution with 25 mg of active compound which was made up to 10 ml using a mixture of acetone and/or dimethyl sulfoxide (DMSO) and the emulsifier Wettoll® EM 31 (wetting agent having emulsifying and dispersing action based on the ethoxylated alkylphenols) in a volume ratio of solvent/emulsifier of 99 to 1. The mixture was then made up with water to 100 ml. This stock solution was diluted with the solvent/emulsifier/water mixture described to the concentration of active compound stated below.
Leaves of potted wheat seedlings of the cultivar “Kanzler” were inoculated with a spore suspension of brown rust of wheat (Puccinia recondite). The pots were then placed in a chamber with high atmospheric humidity (90 to 95%) and 20 to 22° C. for 24 hours. During this time, the spores germinated and the germ tubes penetrated into the leaf tissue. The next day, the infected plants were sprayed to runoff point with the above-described active compound solution having the active compound concentration stated below. After the spray coating had dried on, the test plants were cultivated in a greenhouse at temperatures between 20 and 22° C. and 65 to 70% relative atmospheric humidity for 7 days. The extent of the rust fungus development on the leaves was then determined.

Compound | infection (extent of the rust fungus development on the leaves)
COc1ccc(-c2nc(-c3ncc4c(n3)CCCCC4)ccc2C)cn1 [Example 44] | no infection
COc1ccc(-c2nc(-c3ncc4c(n3)CCCCC4)ccc2C)cn1 [drawing 28] | 90%
